Consider 22 compounds from patent publication US9783530B2, “Factor Xla inhibitors” (Merck Sharp & Dohme Corp., priority 2014, dated 2017).

Molecules are shown by their SMILES.

The term IC50 denotes the concentration at which inhibition is half-maximal.

purified human Factor XIa, sequence (P03951 388-625): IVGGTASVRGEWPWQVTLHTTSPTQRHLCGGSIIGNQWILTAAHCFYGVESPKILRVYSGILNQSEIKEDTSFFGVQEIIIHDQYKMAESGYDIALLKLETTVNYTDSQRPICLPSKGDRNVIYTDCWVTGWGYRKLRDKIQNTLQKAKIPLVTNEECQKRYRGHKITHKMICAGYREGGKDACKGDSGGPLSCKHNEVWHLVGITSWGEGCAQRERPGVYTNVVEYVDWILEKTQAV
purified human Factor XIa, sequence (P03951 19-387 partner): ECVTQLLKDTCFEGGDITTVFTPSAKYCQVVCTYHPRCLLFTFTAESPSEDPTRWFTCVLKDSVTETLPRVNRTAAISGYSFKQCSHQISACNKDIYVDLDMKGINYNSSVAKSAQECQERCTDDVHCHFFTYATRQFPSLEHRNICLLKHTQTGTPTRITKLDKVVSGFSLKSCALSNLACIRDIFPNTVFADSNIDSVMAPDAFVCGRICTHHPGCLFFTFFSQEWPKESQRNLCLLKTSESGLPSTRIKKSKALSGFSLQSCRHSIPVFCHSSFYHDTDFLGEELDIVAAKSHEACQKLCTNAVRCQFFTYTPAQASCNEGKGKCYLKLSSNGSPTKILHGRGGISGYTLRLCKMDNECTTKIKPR
purified Human plasma kallikrein, sequence (P03952 391-638): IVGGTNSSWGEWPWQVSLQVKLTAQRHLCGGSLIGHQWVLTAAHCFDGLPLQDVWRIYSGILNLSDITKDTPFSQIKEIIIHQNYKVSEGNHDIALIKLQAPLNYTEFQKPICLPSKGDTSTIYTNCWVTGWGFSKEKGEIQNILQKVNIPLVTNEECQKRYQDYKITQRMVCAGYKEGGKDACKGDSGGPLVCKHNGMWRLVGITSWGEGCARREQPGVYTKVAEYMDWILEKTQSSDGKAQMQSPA
purified Human plasma kallikrein, sequence (P03952 20-390 partner): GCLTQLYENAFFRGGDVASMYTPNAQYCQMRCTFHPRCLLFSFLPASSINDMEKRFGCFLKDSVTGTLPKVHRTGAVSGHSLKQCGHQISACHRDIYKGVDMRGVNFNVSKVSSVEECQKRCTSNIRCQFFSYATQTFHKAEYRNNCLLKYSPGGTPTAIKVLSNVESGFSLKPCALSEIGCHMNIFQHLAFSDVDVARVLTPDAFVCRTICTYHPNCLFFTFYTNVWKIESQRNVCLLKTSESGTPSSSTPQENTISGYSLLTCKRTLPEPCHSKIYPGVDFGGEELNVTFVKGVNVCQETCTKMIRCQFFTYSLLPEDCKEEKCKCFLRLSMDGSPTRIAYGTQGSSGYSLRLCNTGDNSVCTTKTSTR

One test concerns the target purified human Factor XIa (Homo sapiens (Human), UniProt P03951). Kind of test: Factor XIa Assay. In kind it is biochemical. Particulars: purified human Factor XIa 40 pM, substrate Z-Gly-Pro-Arg-AFC, pH 7.4; read-out: FXIa IC50. The protocol:
The effectiveness of a compound of the present invention as an inhibitor of Coagulation Factor XIa can be determined using a relevant purified serine protease, and an appropriate synthetic substrate. The rate of hydrolysis of the chromogenic or fluorogenic substrate by the relevant serine protease was measured both in the absence and presence of compounds of the present invention. Assays were conducted at room temperature or at 37° C. […] A decrease in the rate of fluorescence change in the presence of inhibitor is indicative of enzyme inhibition. Such methods are known to one skilled in the art. […]
Factor XIa determinations were made in 50 mM HEPES buffer at pH 7.4 containing 150 mM NaCl, 5 mM CaCl2, and 0.1% PEG 8000 (polyethylene glycol; JT Baker or Fisher Scientific). Determinations were made using purified human Factor XIa at a final concentration of 40 pM (Sekisui Diagnostics) and he synthetic substrate, Z-Gly-Pro-Arg-AFC, TFA salt (Sigma #C0980) at a concentration of 100 µM.
Activity assays were performed by diluting a stock solution of substrate at least tenfold to a final concentration ≦0.1 Km into a solution containing enzyme or enzyme equilibrated with inhibitor. Times required to achieve equilibration between enzyme and inhibitor were determined in control experiments. Initial velocities of product formation in the absence (Vo) or presence of inhibitor (Vi) were measured. Assuming competitive inhibition, and that unity is negligible compared Km/[S], [I]/e, and [I]/e (where [S], [I], and e respectively represent the total concentrations, of substrate, inhibitor and enzyme), the equilibrium constant (Ki) for dissociation of the inhibitor from the enzyme can be obtained from the dependence of Vo/Vi on [I] shown in the following equation.
Consider `N#Cc1ccc(Cl)c(F)c1-c1ccc(C(CC2CC2)C(=O)Nc2ccc(C(=O)O)cc2)[n+]([O-])c1` (single isomer, unassigned) [Example 29, 4-({2-[5-(3-chloro-6-cyano-2-fluorophenyl)-1-oxidopyridin-2-yl]-3-cyclopropylpropanoyl}amino)benzoic acid], for which the half-maximal inhibitory concentration (IC50) was determined as 458 nM.
For `O=C(Cc1ccc(-c2cc(Cl)ccc2OC(F)F)c[n+]1[O-])Nc1ccc(C(=O)O)cc1` [Example 12, 4-[({5-[5-chloro-2-(difluoromethoxy)phenyl]-1-oxidopyridin-2-yl}acetyl)amino] benzoic acid], the IC50 turned out to be 711 nM.
Same read-out and setting: the same measure for `Cc1cc(NC(=O)C(CC2CC2)c2ccc(-c3cc(Cl)ccc3-c3cnco3)c[n+]2[O-])ccc1C(=O)O` (racemic) [Example 36, 4-[(2-{5-[5-chloro-2-(1,3-oxazol-5-yl)phenyl]-1-oxidopyridin-2-yl}-3-cyclopropylpropanoyl)amino]-2-methyl-benzoic acid]: 94.5 nM.
As for `Cc1cc(NC(=O)C(CC2CC2)c2ccc(-c3cc(Cl)ccc3CN)c[n+]2[O-])ccc1C(=O)O` (racemic) [Example 37, 4-[(2-{5-[2-(aminomethyl)-5-chlorophenyl]-1-oxidopyridin-2-yl}-3-cyclopropylpropanoyl)amino]-2-methylbenzoic acid], the IC50 came to 228 nM.
On the same count and under the same terms, then `O=C(O)c1ccc(NC(=O)C(CC2CC2)c2ccc(-c3c(F)ccc(Cl)c3F)c[n+]2[O-])cc1` (racemic) [Example 33, 4-({2-[5-(3-chloro-2,6-difluorophenyl)-1-oxidopyridin-2-yl]-3-cyclopropylpropanoyl}amino)benzoic acid], with 134 nM.
Same read-out and setting: the same measure for `O=C(O)c1ccc(NC(=O)[C@H](Cc2ccccc2)c2ccc(-c3cc(Cl)ccc3-c3cnco3)c[n+]2[O-])cc1` [Example 21, 4-{[(2R)-2-{5-[5-chloro-2-(1,3-oxazol-5-yl)phenyl]-1-oxidopyridin-2-yl}-3-phenylpropanoyl]amino} benzoic acid]: 0.52 nM.
On the same count and under the same terms, the same measure for `Cc1c(-c2c(F)ccc(Cl)c2F)ccc(C(Cc2ccccc2)C(=O)Nc2ccc(C(=O)O)cc2)[n+]1[O-]` (stereo not shown) [Example 26, 6-(1-((4-carboxyphenyl)amino)-1-oxo-3-phenylpropan-2-yl)-3-(3-chloro-2,6-difluorophenyl)-2-methylpyridine 1-oxide]: 693 nM.
On to `O=C(O)c1ccc(NC(=O)C(CC2CC2)c2ccc(-c3cc(Cl)ccc3-c3nccs3)c[n+]2[O-])cc1` (racemic) [Example 43, 4-[(2-{5-[5-chloro-2-(1,3-thiazol-2-yl)phenyl]-1-oxidopyridin-2-yl}-3-cyclopropylpropanoyl)amino]benzoic acid], for which the IC50 was found to be 53.6 nM.
Regarding `O=C(NC12CCC(C(=O)O)(CC1)CC2)C(Cc1ccccc1)c1ccc(-c2cc(Cl)ccc2-n2cnnn2)c[n+]1[O-]` (single isomer, unassigned) [Example 18, 4-[(2-{5-[5-chloro-2-(1H-tetrazol-1-yl)phenyl]-1-oxidopyridin-2-yl}-3-phenylpropanoyl)amino] bicyclo[2.2.2]octane-1-carboxylic acid], the IC50 amounted to 271 nM.
The same measure, in the same setting: then `O=C(O)c1ccc(NC(=O)[C@@H](Cc2ccccc2)c2ccc(-c3c(F)ccc(Cl)c3F)c[n+]2[O-])cc1` [Example 3, 4-({(2S)-2-[5-(3-chloro-2,6-difluorophenyl)-1-oxidopyridin-2-yl]-3-phenylpropanoyl}amino) benzoic acid], with 825 nM; and `O=C(O)c1ccc(NC(=O)[C@@H](Cc2ccccc2)c2ccc(-c3cc(Cl)ccc3-c3cnco3)c[n+]2[O-])cc1` [Example 22, 4-{[(2S)-2-{5-[5-chloro-2-(1,3-oxazol-5-yl)phenyl]-1-oxidopyridin-2-yl}-3-phenylpropanoyl]amino} benzoic acid], with 364 nM.
For the compound `O=C(O)c1ccc(NC(=O)C(CC2CC2)c2ccc(-c3cc(Cl)ccc3-n3cnnn3)c[n+]2[O-])c(Cl)c1` (single isomer, unassigned) [Example 31, 3-chloro-4-[(2-{5-[5-chloro-2-(1H-tetrazol-1-yl)phenyl]-1-oxidopyridin-2-yl}-3-cyclopropylpropanoyl)amino]benzoic acid], the IC50 was 752 nM.
On the same count and under the same terms, then `O=C(Cc1ccc(-c2cc(Cl)ccc2C(F)F)c[n+]1[O-])Nc1ccc(C(=O)O)cc1` [Example 13, 4-[({5-[5-chloro-2-(difluoromethyl)phenyl]-1-oxidopyridin-2-yl}acetyl)amino] benzoic acid], with 388 nM; and `O=C(O)c1ccc(NC(=O)C(O)c2ccc(-c3cc(Cl)ccc3C3CC3)c[n+]2[O-])cc1` (racemic) [Example 11, 4-({[5-(5-chloro-2-cyclopropylphenyl)-1-oxidopyridin-2-yl](hydroxy)acetyl}amino)benzoic acid], with 2510 nM.
On the same count and under the same terms, the same measure for `COC(=O)NC12CCC(NC(=O)C(Cc3ccccc3)c3ccc(-c4cc(Cl)ccc4-n4cnnn4)c[n+]3[O-])(CC1)CC2` (single isomer, unassigned) [Example 20, methyl {4-[(2-{5-[5-chloro-2-(1H-tetrazol-1-yl)phenyl]-1-oxidopyridin-2-yl}-3-phenylpropanoyl)amino]bicyclo[2.2.2]oct-1-yl}carbamate]: 1000 nM; for `O=C(NC12CCC(C(=O)O)(CC1)CC2)C(Cc1ccccc1)c1ccc(-c2c(F)ccc(Cl)c2F)c[n+]1[O-]` (single isomer, unassigned) [Example 16, 4-({2-[5-(3-chloro-2,6-difluorophenyl)-1-oxidopyridin-2-yl]-3-phenylpropanoyl}amino) bicyclo[2.2.2]octane-1-carboxylic acid]: 10000 nM.
For the compound `O=C(O)c1ccc(NC(=O)C(CC2CC2)c2ccc(-c3cc(Cl)ccc3-c3cnco3)c[n+]2[O-])cc1` (single isomer, unassigned) [Example 34, 4-[(2-{5-[5-chloro-2-(1,3-oxazol-5-yl)phenyl]-1-oxidopyridin-2-yl}-3-cyclopropylpropanoyl)amino]benzoic acid], the IC50 was 443 nM.
On the same count and under the same terms, then `Cc1cc(C(=O)O)ccc1NC(=O)C(CC1CC1)c1ccc(-c2cc(Cl)ccc2-n2cnnn2)c[n+]1[O-]` (single isomer, unassigned) [Example 46, 4-[(2-{5-[5-chloro-2-(1H-tetrazol-1-yl)phenyl]-1-oxidopyridin-2-yl}-3-cyclopropylpropanoyl)amino]-3-methylbenzoic acid], with 1000 nM; and `O=C(O)c1ccc(NC(=O)C(CC2CC2)c2ccc(-c3cc(Cl)ccc3OC(F)(F)F)c[n+]2[O-])cc1` (single isomer, unassigned) [Example 38, 4-[(2-{5-[5-chloro-2-(trifluoromethoxy)phenyl]-1-oxidopyridin-2-yl}-3-cyclopropylpropanoyl)amino]benzoic acid], with 1000 nM.
Consider `Cc1cc(NC(=O)C(CC2CC2)c2ccc(-c3cc(Cl)ccc3-n3cnnn3)c[n+]2[O-])ccc1C(=O)O` (single isomer, unassigned) [Example 49, 4-[(2-{5-[5-chloro-2-(1H-tetrazol-1-yl)phenyl]-1-oxidopyridin-2-yl}-3-cyclopropylpropanoyl)amino]-2-methylbenzoic acid], for which the IC50 stood at 57 nM.
Same read-out and setting: the same measure for `O=C(Cc1ccc(-c2cc(Cl)ccc2C2CC2)c[n+]1[O-])Nc1ccc(C(=O)O)cc1` [Example 10, 4-({[5-(5-chloro-2-cyclopropylphenyl)-1-oxidopyridin-2-yl]acetyl}amino) benzoic acid]: 2190 nM.

The target in another test is purified Human plasma kallikrein (Homo sapiens (Human), UniProt P03952). Kind of test: Kallikrein Assay. Format: biochemical. Particulars: purified Human plasma kallikrein 0.5 nM, substrate Acetyl-K-P-R-AFC, pH 7.4; read-out: P. KLK IC50. Here is the method:
The effectiveness of a compound of the present invention as an inhibitor of Kallikrein can be determined using a relevant purified serine protease, and an appropriate synthetic substrate. The rate of hydrolysis of the chromogenic or fluorogenic substrate by the relevant serine protease was measured both in the absence and presence of compounds of the present invention. Assays were conducted at room temperature or at 37° C. […] A decrease in the rate of fluorescence change in the presence of inhibitor is indicative of enzyme inhibition. Such methods are known to one skilled in the art. The results of this assay are expressed as the inhibitory constant, Ki.
Kallikrein determinations were made in 50 mM HEPES buffer at pH 7.4 containing 150 mM NaCl, 5 mM CaCl2, and 0.1% PEG 8000 (polyethylene glycol; Fisher Scientific). Determinations were made using purified Human plasma kallikrein at a final concentration of 0.5 nM (Enzyme Research Laboratories) and the synthetic substrate, Acetyl-K-P-R-AFC (Sigma # C6608) at a concentration of […].
Activity assays were performed by diluting a stock solution of substrate at least tenfold to a final concentration ≦0.2 Km into a solution containing enzyme or enzyme equilibrated with inhibitor. Times required to achieve equilibration between enzyme and inhibitor were determined in control experiments. The reactions were performed under linear progress curve conditions and fluorescence increase measured at 405 Ex/510 Em nm. Values were converted to percent inhibition of the control reaction (after subtracting 100% Inhibition value). IC50 was determined by inflection point from a four parameter logistic curve fit. Ki was calculated using the Cheng Prusoff equation, Ki=IC50/(1+([S]/Km)).
Consider `O=C(O)c1ccc(NC(=O)C(CC2CC2)c2ccc(-c3cc(Cl)ccc3-n3cc(C(F)F)nn3)c[n+]2[O-])cc1` (single isomer, unassigned) [Example 52, 4-{[2-(5-{5-chloro-2-[4-(difluoromethyl)-1H-1,2,3-triazol-1-yl]phenyl}-1-oxidopyridin-2-yl)-3-cyclopropylpropanoyl]amino}benzoic acid], for which the IC50 amounted to 85.6 nM.
